Reference: ChEMBL document CHEMBL1125546, “Novel 5-HT3 antagonists. Isoquinolinones and 3-aryl-2-pyridones” (J Med Chem, 1992)

Tests used:
[1] = tested on: Rattus norvegicus; experiment: Inhibitory activity against Bezold-jarisch functional assay, inducing a transient bradycardia upon intravenous administration of 5-hydroxytryptamine-(10 ug/kg) in anesthetized rats.; conditions: read-out: ID50 (the source's name)
[2] = tested on: Canis familiaris; experiment: Compound was evaluated for protection against cisplatin-induced emesis by measuring number of emetic episodes in dogs administered perorally at 0.3 mg/kg.; format: functional, Canis lupus familiaris; conditions: route oral
[3] = tested on: Canis familiaris; experiment: Compound was evaluated for protection against cisplatin-induced emesis by measuring number of emetic episodes in dogs administered intravenously at 0.03 mg/kg.; format: functional, Canis lupus familiaris; conditions: route intravenous
[4] = Compound was evaluated for protection against cisplatin-induced emesis by measuring number of retches in ferrets administered perorally at 0.1 mg/kg.; format: functional, Mustela putorius furo; conditions: route oral
[5] = tested on: Canis familiaris; experiment: Compound was evaluated for protection against cisplatin-induced emesis by measuring number of emetic episodes in dogs administered intravenously at 0.1 mg/kg.; format: functional, Canis lupus familiaris; conditions: route intravenous
[6] = tested on: Canis familiaris; experiment: Compound was evaluated for protection against cisplatin-induced emesis by measuring number of retches in dogs administered perorally at 1.0 mg/kg.; format: functional, Canis lupus familiaris; conditions: route oral
[7] = tested on: Canis familiaris; experiment: Compound was evaluated for protection against cisplatin-induced emesis by measuring number of emetic episodes in dogs administered perorally at 0.1 mg/kg.; format: functional, Canis lupus familiaris; conditions: route oral
[8] = Compound was evaluated for protection against cisplatin-induced emesis by measuring number of retches in ferrets administered intravenously at 0.3 mg/kg.; format: functional, Mustela putorius furo; conditions: route intravenous
[9] = tested on: Canis familiaris; experiment: Compound was evaluated for protection against cisplatin-induced emesis by measuring number of emetic episodes in dogs administered perorally at 1.0 mg/kg.; format: functional, Canis lupus familiaris; conditions: route oral
[10] = tested on: Canis familiaris; experiment: Compound was evaluated for protection against cisplatin-induced emesis by measuring number of retches in dogs administered intravenously at 0.3 mg/kg.; format: functional, Canis lupus familiaris; conditions: route intravenous
[11] = tested on: Canis familiaris; experiment: Compound was evaluated for protection against cisplatin-induced emesis by measuring number of retches in dogs administered intravenously at 0.1 mg/kg.; format: functional, Canis lupus familiaris; conditions: route intravenous
[12] = Compound was evaluated for number of emetic episodes in ferrets administered intravenously at 0.01 mg/kg.; format: functional, Mustela putorius furo; conditions: route intravenous
[13] = Compound was evaluated for protection against cisplatin-induced emesis by measuring number of retches in ferrets administered perorally at 0.3 mg/kg.; format: functional, Mustela putorius furo; conditions: route oral
[14] = Compound was evaluated for protection against cisplatin-induced emesis by measuring number of retches in ferrets administered perorally at 1.0 mg/kg.; format: functional, Mustela putorius furo; conditions: route oral
[15] = tested on: Canis familiaris; experiment: Compound was evaluated for number of retches in dogs administered perorally at 0.3 mg/kg.; format: functional, Canis lupus familiaris; conditions: route oral
[16] = Compound was evaluated for protection against cisplatin-induced emesis by measuring number of emetic episodes in ferrets administered intravenously at 0.3 mg/kg.; format: functional, Mustela putorius furo; conditions: route intravenous
[17] = tested on: Canis familiaris; experiment: Compound was evaluated for protection against cisplatin-induced emesis by measuring number of retches in dogs administered perorally at 0.1 mg/kg.; format: functional, Canis lupus familiaris; conditions: route oral
[18] = Compound was evaluated for protection against cisplatin-induced emesis by measuring number of emetic episodes in ferrets administered perorally at 0.3 mg/kg.; format: functional, Mustela putorius furo; conditions: route oral
[19] = Compound was evaluated for protection against cisplatin-induced emesis by measuring number of retches in ferrets administered intravenously at 0.1 mg/kg.; format: functional, Mustela putorius furo; conditions: route intravenous
[20] = Compound was evaluated for protection against cisplatin-induced emesis by measuring number of retches in ferrets administered intravenously at 0.03 mg/kg.; format: functional, Mustela putorius furo; conditions: route intravenous
[21] = Compound was evaluated for protection against cisplatin-induced emesis by measuring number of emetic episodes in ferrets administered perorally at 1.0 mg/kg.; format: functional, Mustela putorius furo; conditions: route oral
[22] = Compound was evaluated for protection against cisplatin-induced emesis by measuring number of retches in ferrets administered intravenously at 0.01 mg/kg.; format: functional, Mustela putorius furo; conditions: route intravenous
[23] = Compound was evaluated for protection against cisplatin-induced emesis by measuring number of emetic episodes in ferrets administered perorally at 0.1 mg/kg.; format: functional, Mustela putorius furo; conditions: route oral
[24] = tested on: Canis familiaris; experiment: Compound was evaluated for protection against cisplatin-induced emesis by measuring number of retches in dogs administered intravenously at 0.03 mg/kg.; format: functional, Canis lupus familiaris; conditions: route intravenous
[25] = Compound was evaluated for protection against cisplatin-induced emesis by measuring number of emetic episodes in ferrets administered intravenously at 0.03 mg/kg.; format: functional, Mustela putorius furo; conditions: route intravenous
[26] = Compound was evaluated for protection against cisplatin-induced emesis by measuring number of emetic episodes in ferrets administered intravenously at 0.1 mg/kg.; format: functional, Mustela putorius furo; conditions: route intravenous
[27] = tested on: Canis familiaris; experiment: Compound was evaluated for protection against cisplatin-induced emesis by measuring number of emetic episodes in dogs administered intravenously at 0.3 mg/kg.; format: functional, Canis lupus familiaris; conditions: route intravenous

For `Cc1[nH]cnc1Cn1ccc2c(N)cccc2c1=O`, the ED50 [1] was over 100 µg/kg.

Work on `Cc1[nH]cnc1Cn1cccc(-c2cccn2C)c1=O` yielded an ED50 [1] of 43.3 µg/kg.

For `COc1cc2ccccc2c2c(=O)n(Cc3[nH]cnc3C)ccc12`, the ED50 [1] was 2.53 µg/kg.

Work on `Cc1[nH]cnc1Cn1ccc2cc(N)ccc2c1=O` yielded an ED50 [1] of 37.9 µg/kg.

Work on `Cc1[nH]cnc1Cn1ncc2ccccc2c1=O` yielded an ED50 [1] of over 100 µg/kg.

Compound `Cc1nc[nH]c1Cn1ccc2cc(C)c3ccccc3c2c1=O` has an ED50 [1] of 0.82 µg/kg.

With `Cc1nc[nH]c1Cn1ccc2c(=O)n(C)c3ccccc3c2c1=O` the ED50 [1] was 0.23 µg/kg.

Compound `Cc1[nH]cnc1Cn1ccc2c(c1=O)-c1ccccc1CC2` has an ED50 [1] of 0.46 µg/kg.

Compound `Cc1ccc(-c2cccn(Cc3[nH]cnc3C)c2=O)o1` has an ED50 [1] of 9.18 µg/kg.

For `Cc1[nH]cnc1Cn1cccc(-c2cccc(F)c2)c1=O`, the ED50 [1] was 29.9 µg/kg.

For `Cc1[nH]cnc1Cn1ccc2ccc3cccnc3c2c1=O`, the ED50 [1] was 24.3 µg/kg.

Compound `Cc1[nH]cnc1Cn1cccc(-c2ccoc2)c1=O` has an ED50 [1] of 8.65 µg/kg.

`Cc1[nH]cnc1Cn1cccc(-c2ccccc2O)c1=O` gave an ED50 [1] of 40 µg/kg.

`Cc1[nH]cnc1Cn1ccc2ccc3c(ccn3C)c2c1=O` gave an ED50 [1] of 1.64 µg/kg.

Compound `Cc1[nH]cnc1Cn1cccc(-c2ccccn2)c1=O` has an ED50 [1] of 10.4 µg/kg.

Work on `Cc1[nH]cnc1Cn1cccc(-c2ccsc2)c1=O` yielded an ED50 [1] of 3.1 µg/kg.

With `Cc1ccc(-c2cccn(Cc3[nH]cnc3C)c2=O)s1` the ED50 [1] was 3.62 µg/kg.

Work on `Cc1nc[nH]c1Cn1ccc2c(C)cc3ccccc3c2c1=O` yielded an ED50 [1] of 1.09 µg/kg.

For `Cc1[nH]cnc1Cn1ccc2cnc3ccccc3c2c1=O`, the ED50 [1] was 0.28 µg/kg.

With `Cc1[nH]cnc1Cn1ccc2ccc3ccccc3c2c1=O` the “No. of emetic episodes” value [2] was 4, the “No. of emetic episodes” value [3] was 10.2 and the No. of retches [4] was 89.3. For the same compound, the “No. of emetic episodes” value [5] was 4.4, the No. of retches [6] was 26.3 and the “No. of emetic episodes” value [7] was 10.8. The No. of retches [8] was 11.8, the “No. of emetic episodes” value [9] was 1.8 and the No. of retches [10] was 42.4. For the same compound, the No. of retches [11] was 53.8, the ED50 [1] was 0.3 µg/kg and the “No. of emetic episodes” value [12] was 10.8. For the same compound, the No. of retches [13] was 31.5, the No. of retches [14] was 1 and the No. of retches [15] was 27.8. For the same compound, the “No. of emetic episodes” value [16] was 0, the No. of retches [17] was 133.2 and the “No. of emetic episodes” value [18] was 1.3. For the same compound, the No. of retches [19] was 65, the No. of retches [20] was 79 and the “No. of emetic episodes” value [21] was 0. For the same compound, the No. of retches [22] was 144.5, the “No. of emetic episodes” value [23] was 4.8 and the No. of retches [24] was 143.8. For the same compound, the “No. of emetic episodes” value [25] was 5, the “No. of emetic episodes” value [26] was 2 and the “No. of emetic episodes” value [27] was 3.4.

Work on `Cc1[nH]cnc1Cn1ccc2ncc3ccccc3c2c1=O` yielded an ED50 [1] of 0.16 µg/kg.

Compound `Cc1[nH]cnc1Cn1ccc2c(Cl)cc(Cl)cc2c1=O` has an ED50 [1] of 34.6 µg/kg.

With `Cc1[nH]cnc1Cn1ccc2ccc3ncccc3c2c1=O` the ED50 [1] was 2.86 µg/kg.

`Cc1[nH]cnc1Cn1ccc2cc(Br)c3ccccc3c2c1=O` showed an ED50 [1] of 6.21 µg/kg.

Compound `COc1ccc(-c2cccn(Cc3[nH]cnc3C)c2=O)cc1` has an ED50 [1] of over 100 µg/kg.

Compound `Cc1[nH]cnc1Cn1ccc2cc3c(cc2c1=O)OCCO3` has an ED50 [1] of over 100 µg/kg.

In the case of `Cc1[nH]cnc1Cn1ccc2c(CO)cc3ccccc3c2c1=O`, the ED50 [1] was 0.68 µg/kg.
